Here are results for two molecules from PMC10798554, “Interaction of PINK1 with nucleotides and kinetin” (Science Advances, 2024).

Common to all, as to format: biochemical
For experiment [1], the target named is T1, HsPINK1 (Homo sapiens, UniProt Q9BXM7, M318A).
T1 construct: gene PINK1; HsPINK1 expressed transiently (pcDNA5d3) in HeLa PINK1-/- cells; heavy membrane fraction after oligomycin/antimycin treatment
Kind of experiment: ubiquitin phosphorylation by heavy membranes, pSer65 Western blot. The note with it: 15 uM ubiquitin, pH 7.4, 30 C.

Experiment [2] addresses T2, HsPINK1 (Homo sapiens, UniProt Q9BXM7, M318G).
T2 construct: gene PINK1; HsPINK1 expressed transiently (pcDNA5d3) in HeLa PINK1-/- cells; heavy membrane fraction after oligomycin/antimycin treatment
The description is as above. As to conditions: 1 mM KTP, 15 uM ubiquitin, pH 7.4, 30 C.

Experiment [3] concerns the target T3, PhPINK1 (residues 115 to 575) (Pediculus humanus, UniProt E0W1I1).
T3 construct: gene Pink1; residues 115-575, kinase domain with N- and C-terminal extensions; E. coli Rosetta2; N-terminal GST tag with 3C protease site in vector; autophosphorylated monomer for thermal shift, lambda-phosphatase-treated homo-dodecamer (six dimers) for cryo-EM
T3 sequence (E0W1I1 115-575): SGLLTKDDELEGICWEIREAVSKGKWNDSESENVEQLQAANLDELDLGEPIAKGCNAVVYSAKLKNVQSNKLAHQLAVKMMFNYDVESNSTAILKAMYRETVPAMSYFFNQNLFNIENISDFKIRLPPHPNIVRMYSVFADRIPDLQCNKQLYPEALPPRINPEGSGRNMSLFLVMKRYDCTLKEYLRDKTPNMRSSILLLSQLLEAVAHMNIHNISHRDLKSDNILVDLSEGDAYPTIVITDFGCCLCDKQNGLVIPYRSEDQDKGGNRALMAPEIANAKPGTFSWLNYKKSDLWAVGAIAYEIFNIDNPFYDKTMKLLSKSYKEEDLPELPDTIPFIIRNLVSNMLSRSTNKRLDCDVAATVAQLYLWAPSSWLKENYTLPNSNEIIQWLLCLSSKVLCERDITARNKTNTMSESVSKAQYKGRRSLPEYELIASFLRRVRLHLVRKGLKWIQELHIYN
Kind of experiment: ubiquitin phosphorylation, Phos-tag SDS-PAGE. As to conditions: 1 mM ATP, 15 uM ubiquitin, 10 mM MgCl2, pH 7.4, 22 C.

T1 sequence (Q9BXM7 78-581 M318A): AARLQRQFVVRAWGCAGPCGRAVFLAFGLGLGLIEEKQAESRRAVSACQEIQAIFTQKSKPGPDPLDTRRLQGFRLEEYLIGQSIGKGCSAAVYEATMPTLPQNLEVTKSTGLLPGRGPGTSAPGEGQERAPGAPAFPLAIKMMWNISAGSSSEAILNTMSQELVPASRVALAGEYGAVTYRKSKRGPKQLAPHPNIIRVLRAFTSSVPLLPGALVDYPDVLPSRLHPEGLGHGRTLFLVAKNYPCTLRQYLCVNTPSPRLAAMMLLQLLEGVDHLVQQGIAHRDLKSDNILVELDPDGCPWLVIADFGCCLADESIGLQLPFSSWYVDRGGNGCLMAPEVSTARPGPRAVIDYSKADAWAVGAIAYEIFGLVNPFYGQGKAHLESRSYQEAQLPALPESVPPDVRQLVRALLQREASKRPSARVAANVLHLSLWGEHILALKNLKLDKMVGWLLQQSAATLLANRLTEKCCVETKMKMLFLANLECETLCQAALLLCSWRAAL
T2 sequence (Q9BXM7 78-581 M318G): as the sequence (Q9BXM7 78-581 M318A) above, with A241G counted along it

Take `O=P(O)(O)OP(=O)(O)OP(=O)(O)OC[C@H]1O[C@@H](n2cnc3c(NCc4ccco4)ncnc32)[C@H](O)[C@@H]1O` [KTP]: the “ubiquitin phosphorylation by heavy membranes, pSer65 Western blot” value on HsPINK1 [1] (1 mM KTP) and at HsPINK1 [2] was “both mutants were able to use KTP instead of ATP to generate phospho-ubiquitin” throughout.
Consider `Nc1ncnc2c1ncn2[C@@H]1O[C@H](COP(=O)(O)OP(=O)(O)OP(=O)(O)O)[C@@H](O)[C@H]1O` [ATP], for which, in experiment [3], the “ubiquitin phosphorylation, Phos-tag SDS-PAGE” value is “Time course ubiquitin phosphorylation assay using WT PhPINK1 in the presence of ATP”. For the same molecule, the “ubiquitin phosphorylation by heavy membranes, pSer65 Western blot” value on HsPINK1 [1] (1 mM ATP) is “HsPINK1 M318A, is active with both ATP and KTP”.
